Reference: US20100119599A1 (ARCHER PHARMACEUTICALS, INC., priority 2006, published 2010)

How the values were obtained:
Aβ1-40 = experiment: Measurement of Aβ1-40 in culture medium of 7W WT APP751 CHO cells by ELISA; assay type: cell-based, Chinese hamster; settings: for Aβ1-40 (% of control): CHO cells that overexpress APP751, zero = below the detection limit of the assay;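 for all read-outs here: 5 µM test compound but RI-coded compounds at 10 µM for 24 hours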
Method: (§1) Chinese hamster ovary (CHO) cells, stably transfected with human APP751 (7W WT APP751 CHO cells) were used. See, e.g., Koo and Squazzo, J. Biol. Chem., 269(26): 17386-17389, 1994. The cells were maintained in DMEM medium supplemented with 10% fetal bovine serum and 1× mixture of penicillin/streptomycin/fungizone/glutamine mixture (Cambrex, Md.) geneticin as selecting agent in 75 cm^2 cell culture flasks. The 7W WT APP751 CHO cells were plated in 96-well cell culture plates in quadruplicate, containing 200 microliters of culture medium, for 18 hours at 37° C. and 5% CO2. All test compounds were placed in dimethyl sulfoxide (DMSO) before being added to the cultured confluent 7W WT APP751 CHO cells to a concentration of the test compound of 5 μM. The culture medium was collected and diluted before being assayed by ELISAs for Aβ1-40 at 10-fold dilution and Aβ1-42 at 2-fold dilution, respectively. Concentrations of Aβ1-40 and Aβ1-42, expressed in pg/ml, were determined using commercially available ELISAs (Biosource, Calif.) in a colorimetric assay using labeled antibodies detected spectrophotometrically. For compounds with an identification beginning “RI”, the compounds were tested at a concentration of 10 μM for 24 hours. Control cells were treated with DMSO containing no compound. The percentage reduction in levels of Aβ1-40 and Aβ1-42 as compared to control cells not exposed to the test compounds are reported for the compounds in Tables 1, 2, and 3, supra. An entry of “0” indicates no detectable amount of Aβ1-40 or Aβ1-42 according to the assay conditions. The data in Tables 1, 2, and 3 may be rounded to the nearest 0.1%.

Aβ1-42 = experiment: Measurement of Aβ1-42 in culture medium of 7W WT APP751 CHO cells by ELISA; assay type: cell-based, Chinese hamster; settings: for Aβ1-42 (% of control): CHO cells that overexpress APP751, zero = below the detection limit of the assay;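 for Aβ1-42 (% of control): 5 µM test compound but RI-coded compounds at 10 µM for 24 hours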
Method: as §1

SMILES	Aβ1-40 (% of control) (Aβ1-40)	Aβ1-42 (% of control) (Aβ1-42)	activity at 5 µM (Aβ1-40; Cricetulus griseus, Table 3, 5 μM test compound, CHO cells stably transfected with human APP751, culture medium, ELISA, control DMSO)	activity at 5 µM (Aβ1-42; Cricetulus griseus, Table 3, 5 μM test compound, CHO cells stably transfected with human APP751, culture medium, ELISA, control DMSO, read-out: Aβ-42 (% of control))
CCC(C)c1ccccc1NC(=O)CSC1=C(C#N)C(c2ccsc2)C(C(=O)Nc2ccccc2)=C(C)N1 (stereo not shown) [RI_68]	74.6 % of control	100 % of control	–	–
CC1=C(C(=O)Nc2ccccc2)C(c2cccs2)C(C#N)=C(SCC(=O)Nc2cccc(Cl)c2)N1 (stereo not shown) [RI_69]	89.1 % of control	69.8 % of control	–	–
CC1=C(C(=O)Nc2ccccc2)C(c2ccsc2)C(C#N)=C(SCC(=O)Nc2cccc(Cl)c2)N1 (stereo not shown) [RI_70]	74.1 % of control	58.2 % of control	–	–
CC1=C(C(=O)Nc2ccccc2)C(c2cccs2)C(C#N)=C(SCC(=O)Nc2ccc(Br)cc2)N1 (stereo not shown) [RI_71]	34.5 % of control	25.1 % of control	–	–
CC1=C(C(=O)Nc2ccccc2)C(c2cccs2)C(C#N)=C(SCC(=O)Nc2ccc(Cl)c(C)c2)N1 (stereo not shown) [RI_72]	40.2 % of control	50.9 % of control	–	–
CC1=C(C(=O)Nc2ccccc2)C(c2ccsc2)C(C#N)=C(SCC(=O)Nc2ccc(Br)cc2)N1 (stereo not shown) [RI_73]	24.3 % of control	34.9 % of control	–	–
CC1=C(C(=O)Nc2ccccc2)C(c2cccs2)C(C#N)=C(SCC(=O)Nc2ccc(Cl)cc2)N1 (stereo not shown) [RI_74]	31.4 % of control	41.6 % of control	–	–
CC1=C(C(=O)Nc2ccccc2)C(c2ccsc2)C(C#N)=C(SCC(=O)Nc2ccc(Cl)cc2)N1 (stereo not shown) [RI_75]	27.3 % of control	38.6 % of control	–	–
CC1=C(C(=O)Nc2ccccc2)C(c2cccs2)C(C#N)=C(SCC(=O)Nc2ccc(F)cc2)N1 (stereo not shown) [RI_76]	46.2 % of control	54.6 % of control	–	–
CC1=C(C(=O)Nc2ccccc2)C(c2ccsc2)C(C#N)=C(SCC(=O)Nc2ccc(F)cc2)N1 (stereo not shown) [RI_77]	16.9 % of control	25.4 % of control	–	–
CCc1cccc(NC(=O)CSC2=C(C#N)C(c3ccc(C)s3)C(C(=O)Nc3ccccc3)=C(C)N2)c1 (stereo not shown) [RI_78]	77.32 % of control	88.1 % of control	–	–
CCc1cccc(NC(=O)CSC2=C(C#N)C(c3sccc3C)C(C(=O)Nc3ccccc3)=C(C)N2)c1 (stereo not shown) [RI_79]	55.46 % of control	51.6 % of control	–	–
CCc1cccc(NC(=O)CSC2=C(C#N)C(c3cc(Br)cs3)C(C(=O)Nc3ccccc3)=C(C)N2)c1 (stereo not shown) [RI_80]	64.37 % of control	54.3 % of control	–	–
CCc1cccc(NC(=O)CSC2=C(C#N)C(c3sccc3Oc3ccccc3)C(C(=O)Nc3ccccc3)=C(C)N2)c1 (stereo not shown) [RI_81]	73.6 % of control	100 % of control	–	–
CCc1cccc(NC(=O)CSC2=C(C#N)C(c3sccc3Br)C(C(=O)Nc3ccccc3)=C(C)N2)c1 (stereo not shown) [RI_82]	67.5 % of control	67.9 % of control	–	–
CC1=C(C(=O)Nc2ccccc2)C(c2ccsc2)C(C#N)=C(SCC(=O)Nc2ccc(Cl)c(C)c2)N1 (stereo not shown) [RI_83]	44.1 % of control	55.4 % of control	–	–
CCc1cccc(NC(=O)CSC2=C(C#N)C(c3cc4cccnc4s3)C(C(=O)Nc3ccccc3)=C(C)N2)c1 (stereo not shown) [RI_84]	64.2 % of control	44.5 % of control	–	–
CCc1cccc(NC(=O)CSC2=C(C#N)C(c3ccc(-c4ccco4)s3)C(C(=O)Nc3ccccc3)=C(C)N2)c1 (stereo not shown) [RI_85]	98.5 % of control	46.7 % of control	–	–
CCc1cccc(NC(=O)CSC2=C(C#N)C(c3ccc(-c4ccccn4)s3)C(C(=O)Nc3ccccc3)=C(C)N2)c1 (stereo not shown) [RI_86]	32.8 % of control	21.8 % of control	–	–

SMILES	Aβ1-40 (% of control) (Aβ1-40)	Aβ1-42 (% of control) (Aβ1-42)	activity at 5 µM (Aβ1-40; Cricetulus griseus, Table 3, 5 μM test compound, CHO cells stably transfected with human APP751, culture medium, ELISA, control DMSO)	activity at 5 µM (Aβ1-42; Cricetulus griseus, Table 3, 5 μM test compound, CHO cells stably transfected with human APP751, culture medium, ELISA, control DMSO, read-out: Aβ-42 (% of control))
CCc1cccc(NC(=O)CSC2=C(C#N)C(c3cc4ccccc4s3)C(C(=O)Nc3ccccc3)=C(C)N2)c1 (stereo not shown) [RI_87]	77.1 % of control	49 % of control	–	–
CCc1cccc(NC(=O)CSC2=C(C#N)C(c3ccc(Cl)s3)C(C(=O)Nc3ccccc3)=C(C)N2)c1 (stereo not shown) [RI_88]	70.1 % of control	54.6 % of control	–	–
CCc1cccc(NC(=O)CSC2=C(C#N)C(c3ccc(-c4ccccc4)s3)C(C(=O)Nc3ccccc3)=C(C)N2)c1 (stereo not shown) [RI_89]	63.7 % of control	55.1 % of control	–	–
CCc1cccc(NC(=O)CSC2=C(C#N)C(c3ccc(-c4cccs4)s3)C(C(=O)Nc3ccccc3)=C(C)N2)c1 (stereo not shown) [RI_90]	63.9 % of control	42.9 % of control	–	–
CC1=C(C(=O)Nc2ccccc2)C(c2cccs2)C(C#N)=C(SCC(=O)Nc2cccc(C)c2)N1 (stereo not shown) [RI_91]	55.9 % of control	60.7 % of control	–	–
CCc1cccc(NC(=O)CSC2=C(C#N)C(c3csc4ccccc34)C(C(=O)Nc3ccccc3)=C(C)N2)c1 (stereo not shown) [RI_92]	60.7 % of control	47.3 % of control	–	–
CC1=C(C(=O)Nc2ccccc2)C(c2cccs2)C(C#N)=C(SCC(=O)Nc2cc(C)ccc2C)N1 (stereo not shown) [RI_93]	42.6 % of control	58 % of control	–	–
COc1cc(Br)ccc1/C=c1\sc2n(c1=O)C(N)=C(C#N)C(c1ccc(Br)cc1OC)C=2C#N (stereo not shown) [RI_94]	73.2 % of control	81.2 % of control	–	–
N#CC1=C(N)n2c(s/c(=C\c3ccccc3)c2=O)=C(C#N)C1c1ccccc1 (stereo not shown) [RI_95]	67.9 % of control	69.9 % of control	–	–
N#CC1=C(N)n2c(s/c(=C\c3cccc(Br)c3)c2=O)=C(C#N)C1c1cccc(Br)c1 (stereo not shown) [RI_96]	71.3 % of control	70.5 % of control	–	–
N#CC1=C(N)N2C(=O)C(Cc3ccc(Br)cc3)SC2=C(C#N)C1c1ccc(Br)cc1 (stereo not shown) [RI_97]	76.7 % of control	74.9 % of control	–	–
N#CC1=C(N)n2c(s/c(=C\c3cccs3)c2=O)=C(C#N)C1c1cccs1 (stereo not shown) [RI_98]	74.6 % of control	78.2 % of control	–	–
Cc1cc(=O)cc(C)n1NC(N)=S [ST002431, 1-[(aminothioxomethyl)amino]-2,6-dimethylhydropyridin-4-one]	–	–	16.9%	97.6%
Cc1ccccc1/C=c1/sc2n(c1=O)C(N)=C(C#N)C(c1ccccc1C)C=2C#N (stereo not shown) [ST003359, 5-amino-7-(2-methylphenyl)-2-[(2-methylphenyl)methylene]-3-oxo-4,7-dihydro-1,3-thiazolidino[3,2-a]pyridine-6,8-dicarbonitrile]	56.16 % of control	98.22 % of control	–	–
N#CC1=C(N)n2c(s/c(=C/c3ccc(Cl)cc3Cl)c2=O)=C(C#N)C1c1ccc(Cl)cc1Cl (stereo not shown) [ST003360, 5-amino-7-(2,4-dichlorophenyl)-2-[(2,4-dichlorophenyl)methylene]-3-oxo-4,7-dihydro-1,3-thiazolidino[3,2-a]pyridine-6,8-dicarbonitrile]	63.37 % of control	72.55 % of control	–	–
Cn1cccc1/C=c1/sc2n(c1=O)C(N)=C(C#N)C(c1cccn1C)C=2C#N (stereo not shown) [ST003361, 5-amino-7-(1-methylpyrrol-2-yl)-2-[(1-methylpyrrol-2-yl)methylene]-3-oxo-4,7-dihydro-1,3-thiazolidino[3,2-a]pyridine-6,8-dicarbonitrile]	43.9 % of control	90.24 % of control	–	–
CCOC(=O)C1=C(C)NC(C)=C(C(=O)OCC)C1c1cccc(NC(=O)C(F)(F)F)c1 [ST003836, ethyl 5-(ethoxycarbonyl)-2,6-dimethyl-4-[3-(2,2,2-trifluoroacetylamino)phenyl]-1,4-dihydropyridine-3-carboxylate]	45.34 % of control	83.98 % of control	–	–
Cc1ccsc1/C=c1\sc2n(c1=O)C(N)=C(C#N)C(c1sccc1C)C=2C#N (stereo not shown) [ST006952, 5-amino-7-(3-methyl(2-thienyl))-2-[(3-methyl(2-thienyl))methylene]-3-oxo-4,7-dihydro-1,3-thiazolidino[3,2-a]pyridine-6,8-dicarbonitrile]	48.24 % of control	77.1 % of control	–	–
N#CC1=C(N)n2c(s/c(=C\c3ccccc3Cl)c2=O)=C(C#N)C1c1ccccc1Cl (stereo not shown) [ST006953]	47.74 % of control	83.98 % of control	–	–
